# Reference: paper PMC10778704, “Comparative Analysis of Cyclization Techniques in Stapled Peptides: Structural Insights into Protein–Protein Interactions in a SARS-CoV-2 Spike RBD/hACE2 Model System” (International Journal of Molecular Sciences, 2023)
# Bridge positions count the residues as written; N and C are the ends. Square brackets hold non-standard residues; d marks the D form. Peptide text beside a SMILES is read from it. S5 = C=CCCC[C@](C)(N)C(=O)O
# Assays:
# [1] = Far-UV circular dichroism, calculated percent helicity in phosphate buffer; type: physicochemical; details: 100 µM in 10 mM sodium phosphate buffer (PBS), pH 7.4, 25 °C; calculated at 222 nm
# Procedure: Figure 3 Data generated from Far-UV CD spectra for hACE2-derived peptides measured at a concentration of 100 µM in 10 mM sodium phosphate buffer at pH 7.4 and 25 °C. (A) Far-UV CD spectra of hACE2 (Asp30-Asp38)-derived linear and i, i + 4 staple peptides in molar ellipticity per residue. (B) Table listing the derivatives of 1 with a focus on the macrocyclization technique and measure-based calculated helicity (%) via CD. (C) CD spectra of hACE2 (His34-Gln42)-derived linear and i, i + 4 staple peptides in molar ellipticity per residue. (D) Table listing the derivatives of 2 with a focus on the macrocyclization technique and measure-based calculated helicity (%) via CD. HDY 1,5-Hexadiyne; BMB 1,4-Bis(bromomethyl)benzene; HFB hexafluorobenzene. ^a Predicted helicity (%) using AGADIR online software available at http://agadir.crg.es (accessed on 17 April 2023); it is only applicable to peptides consisting of natural amino acids. […]
# The raw CD data (mdeg) were converted to mean residue ellipticity ( [θ] , deg·cm^2·dmol^−1·res^−1) by normalizing for peptide concentration, the number of amide bonds and path length, using Equation (2):(2) [θ]=θ/10×C×Np×l where θ is the measured ellipticity (mdeg), C is the peptide molar concentration (M), Np is the number of amino acid residues in the peptide and l is the cell path length (cm).
# The maximum mean ellipticity [θ]max was calculated using Equation (3), as reported previously:(3) [θ]max=−44000+250×T×1−k/Np where T is temperature (°C) and k is the number of non-hydrogen-bonded peptide carbonyls. […]
# [2] = reference control; cited from earlier work
# circular dichroism = details: 10 mM Na phosphate; pH 7.4; 25 °C; 100 uM
# in vitro = details: rat, plasma
# [3] = 37 °C, comparison in words
# [4] = type: physicochemical; details: 100 µM in 50/50 TFE/10 mM sodium phosphate buffer, pH 7.4, 25 °C
# [5] = BeStSel analysis of Far-UV CD spectra (secondary structure content); type: physicochemical; details: from Far-UV CD spectra
# From the text: This finding prompted us to synthesize the lactam stapled peptides 22 and 23. Similar to our observations of compound 10, we also noted a dominant conformation of 22 attributable to a regular helix1 (53.7%) and an antiparallel, right-twisted β-sheet (46.3%). Therefore, the high percentage of calculated helicity in compounds 10 and 22 can be explained on the basis of the contribution of a strong, negative absorbance band within the 217–218 nm spectral range of the Far-UV CD spectra. Such features are typical of a right-twisted β-sheet.
# We were also successful at applying several cyclization strategies across the panel of hACE2 (His34-Gln42)-derived peptides. […] The associated root mean square deviation (RMSD) was 0.5. […] The distortion of the helical conformation can be partially explained by the highly polar nature of our peptide sequence (7 out of 9 amino acids) and inherent limitations in terms of the maximum helicity possible for short peptides due to C- and N-terminal distortions. […] That finding highlights the substantial influence of the initial linear sequence on staple-induced helicity.
# [6] = molecular target: SARS-CoV-2 Spike RBD/hACE2 interactions (Severe acute respiratory syndrome coronavirus 2, UniProt P0DTC2); type: biochemical, SARS-CoV-2 / human
Compound,helicity (circular dichroism) [%],half-life (in vitro) [h],Degradation / stability in rat plasma over 24 h [3],also measured
Ac-NH-Asp-Lys-[Lys-Asn-His-Glu-Asp]-Glu-Asp-[Lys-Phe-Tyr-Gln-Asp]-CO-NH2 [peptide 24],,,,Helicity (%) via CD [1]: 25.2%
"Apelin-13 (QRPRLSHKGPMPF; Apelin-13; UniProt Q9ULZ1 65-77, looked up)",,,,"In vitro half-life (t1/2), in words [2]: short in vitro half-life"
CC(=O)N[C@@H](CC(=O)O)C(=O)N[C@@H](CCCCN)C(=O)N[C@@]1(C)CCC/C=C\CCC[C@@](C)(C(=O)N[C@@H](CCC(=O)O)C(=O)N[C@@H](CC(=O)O)C(N)=O)NC(=O)[C@H](CCC(=O)O)NC(=O)[C@H](Cc2c[nH]cn2)NC(=O)[C@H](CC(N)=O)NC1=O [peptide 10] (Ac-DK[S5]NHE[S5]ED-NH2; staple (Z) 3-7),68.9,4,,
Ac-HEAEDLFYQ-NH2 [peptide 2],,,levels of degradation similar to those of 8-amino acid-long AngII,
Ac-DKFNHEAED-NH2 [peptide 1],,,levels of degradation similar to those of 8-amino acid-long AngII,
"CC(=O)N[C@@H](Cc1c[nH]cn1)C(=O)N[C@@H](CCC(=O)O)C(=O)N[C@H]1CCCCNC(=O)C[C@@H](C(=O)N[C@@H](Cc2ccc(O)cc2)C(=O)N[C@@H](CCC(N)=O)C(N)=O)NC(=O)[C@H](CC(C)C)NC(=O)[C@H](CC(=O)O)NC(=O)[C@H](CCC(=O)O)NC1=O [peptide 4, Ac-NH-His-Glu-[Lys-Glu-Asp-Leu-Asp]-Tyr-Gln-CO-NH2] (Ac-HEKEDLDYQ-NH2; lactam 3-7)",55.5,5,significantly more stable,"Helicity in 50%TFE (%) [4]: 49.4%; Distorted helix2 with BeStSel [5]: 18.3%; Helical content (α-helical character) with BeStSel [5]: 37.0%; Regular helix1 with BeStSel [5]: 18.7%; Luminescence signal (RLUs), disruption of SmBiT-ACE2 + LgBiT-RBD [6]: reduced the luminescence signal"
"CC(=O)N[C@@H](Cc1c[nH]cn1)C(=O)N[C@@H](CCC(=O)O)C(=O)N[C@@]1(C)CCC/C=C/CCC[C@@](C)(C(=O)N[C@@H](Cc2ccc(O)cc2)C(=O)N[C@@H](CCC(N)=O)C(N)=O)NC(=O)[C@H](CC(C)C)NC(=O)[C@H](CC(=O)O)NC(=O)[C@H](CCC(=O)O)NC1=O [peptide 11, Ac-NH-His-Glu-[S5-Glu-Asp-Leu-S5]-Tyr-Gln-CO-NH2] (Ac-HE[S5]EDL[S5]YQ-NH2; staple (E) 3-7)",53.5,6.8,significantly more stable,
Ac-NH-His-Glu-S5-Glu-Asp-Leu-S5-Tyr-Gln-CO-NH2 [linear 11],,,,Helicity (%) via CD [1]: 11.0%
CC(=O)N[C@@H](CC(=O)O)C(=O)N[C@@H](CCCCN)C(=O)N[C@H]1CCCCNC(=O)C[C@@H](C(=O)N[C@@H](CCC(=O)O)C(=O)N[C@@H](CC(=O)O)C(N)=O)NC(=O)[C@H](CCC(=O)O)NC(=O)[C@H](Cc2c[nH]cn2)NC(=O)[C@H](CC(N)=O)NC1=O [compound 3] (Ac-DKKNHEDED-NH2; lactam 3-7),49.9,2.9,,
Ac-NH-His-Glu-[Lys-Glu-Asp-Leu-dPra]-Tyr-Gln-CO-NH2 [compound 13],,,,Helicity (%) via CD [1]: 18.1%
CC(=O)N1CCC[C@H]1C(=O)N[C@@H](CC(=O)O)C(=O)N[C@@H](CCCCN)C(=O)N[C@H]1CCCCNC(=O)C[C@@H](C(=O)N[C@@H](CCC(=O)O)C(=O)N[C@@H](CC(=O)O)C(N)=O)NC(=O)[C@H](CCC(=O)O)NC(=O)[C@H](Cc2c[nH]cn2)NC(=O)[C@H](CC(N)=O)NC1=O (Ac-PDKKNHEDED-NH2; lactam 4-8),89.7,,,
CC(=O)N[C@@H](Cc1c[nH]cn1)C(=O)N[C@@H](CCC(=O)O)C(=O)N[C@H]1CC(=O)NCCCC[C@@H](C(=O)N[C@@H](Cc2ccc(O)cc2)C(=O)N[C@@H](CCC(N)=O)C(N)=O)NC(=O)[C@H](CC(C)C)NC(=O)[C@H](CC(=O)O)NC(=O)[C@H](CCC(=O)O)NC1=O (Ac-HEDEDLKYQ-NH2; lactam 3-7),35.1,,,
CC(=O)N[C@@H](CC(=O)O)C(=O)N[C@@H](CCCCN)C(=O)N[C@H]1Cn2cc(nn2)CCc2cn(nn2)C[C@@H](C(=O)N[C@@H](CCC(=O)O)C(=O)N[C@@H](CC(=O)O)C(N)=O)NC(=O)[C@H](CCC(=O)O)NC(=O)[C@H](Cc2c[nH]cn2)NC(=O)[C@H](CC(N)=O)NC1=O,8.2,,,
